This passage reports Ratio IC50 and inhibition results from ChEMBL document CHEMBL1156254, “4-Pregnen-21-ol-3,20-dione-21-(4-bromobenzenesulfonate) (NSC 88915) and related novel steroid derivatives as tyrosyl-DNA phosphodiesterase (Tdp1) inhibitors” (J Med Chem, 2009).

Calls of active or inactive are those of the source. The rule behind the calls is not given here.

Sequence of Tyrosyl-DNA phosphodiesterase 1 (Homo sapiens) (Q9NUW8 whole entry): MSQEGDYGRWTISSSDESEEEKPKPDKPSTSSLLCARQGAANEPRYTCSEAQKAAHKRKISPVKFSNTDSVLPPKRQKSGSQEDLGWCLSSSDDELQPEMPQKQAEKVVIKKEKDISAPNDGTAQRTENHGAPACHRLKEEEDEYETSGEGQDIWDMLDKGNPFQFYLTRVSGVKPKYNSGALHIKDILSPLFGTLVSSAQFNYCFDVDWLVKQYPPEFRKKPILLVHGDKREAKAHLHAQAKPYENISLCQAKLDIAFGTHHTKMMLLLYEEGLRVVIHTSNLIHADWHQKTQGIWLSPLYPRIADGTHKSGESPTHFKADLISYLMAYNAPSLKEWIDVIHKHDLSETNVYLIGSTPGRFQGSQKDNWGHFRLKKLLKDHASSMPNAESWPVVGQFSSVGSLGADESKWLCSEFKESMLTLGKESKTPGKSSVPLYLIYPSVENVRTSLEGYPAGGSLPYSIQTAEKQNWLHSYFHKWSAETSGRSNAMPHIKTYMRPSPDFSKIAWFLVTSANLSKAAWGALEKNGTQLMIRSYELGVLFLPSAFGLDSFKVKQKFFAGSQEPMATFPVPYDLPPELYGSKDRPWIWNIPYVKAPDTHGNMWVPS
Sequence of DNA repair nuclease/redox regulator APEX1 (Homo sapiens) (P27695 whole entry): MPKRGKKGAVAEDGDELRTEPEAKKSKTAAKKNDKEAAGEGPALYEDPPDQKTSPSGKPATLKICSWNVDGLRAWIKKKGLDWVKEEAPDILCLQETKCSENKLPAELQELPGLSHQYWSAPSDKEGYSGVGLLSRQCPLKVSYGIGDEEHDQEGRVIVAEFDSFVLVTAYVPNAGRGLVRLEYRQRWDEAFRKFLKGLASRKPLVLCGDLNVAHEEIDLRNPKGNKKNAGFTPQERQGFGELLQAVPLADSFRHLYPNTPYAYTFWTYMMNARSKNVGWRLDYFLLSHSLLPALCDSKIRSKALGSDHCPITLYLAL

The first experiment has as its target Tyrosyl-DNA phosphodiesterase 1 (Homo sapiens) (UniProt Q9NUW8). Put plainly: Ratio of IC50 of test compound to IC50 of NSC88915 for human Tdp1 assessed as blockade of enzyme-mediated hydrolysis of phosphodiester linkage between tyrosine and 3^-end of N14Y DNA substrate by SDS-PAGE electrophoresis.
For the molecule `Cc1ccc(S(=O)(=O)OCC(=O)[C@H]2CC[C@H]3[C@@H]4CCC5=CC(=O)CC[C@]5(C)[C@H]4CC[C@]23C)cc1`, the Ratio IC50 is under 3.

As for `C[C@]12CC[C@H]3[C@@H](CCC4=CC(=O)CC[C@@]43C)[C@@H]1CC[C@@H]2C(=O)COS(=O)(=O)c1ccccc1`, the Ratio IC50 is under 3.

On to `C[C@]12CC[C@H]3[C@@H](CCC4=CC(=O)CC[C@@]43C)[C@@H]1CC[C@@H]2C(=O)COS(=O)(=O)c1ccc(Cl)cc1`, for which the Ratio IC50 was under 3.

As to `C[C@]12CC[C@H]3[C@@H](CCC4=CC(=O)CC[C@@]43C)[C@@H]1CC[C@@H]2C(=O)COS(=O)(=O)c1ccc([N+](=O)[O-])cc1`, the Ratio IC50 is under 3.

For the molecule `C[C@]12CC[C@H]3[C@@H](CCC4=CC(=O)CC[C@@]43C)[C@@H]1CC[C@@H]2C(=O)COS(=O)(=O)c1ccc(F)cc1`, the Ratio IC50 is under 3.

The next experiment concerns the target DNA repair nuclease/redox regulator APEX1 (Homo sapiens) (UniProt P27695). In words: Inhibition of human APE1 up to 100 uM.
Take `C[C@]12CC[C@H]3[C@@H](CCC4=CC(=O)CC[C@@]43C)[C@@H]1CC[C@@H]2C(=O)COS(=O)(=O)c1ccc(Br)cc1`: the inhibition entry is “inactive”.
